Values joined by “and” are separate entries in the source; they are usually repeats but may differ in a detail not shown here. Equal values may be shown once. Where a SMILES comes first, the peptide text is derived from it. [ ]: non-standard residue; d: D form. Hyp = O=C(O)[C@@H]1C[C@@H](O)CN1
Test system: IL-1 beta/IL-1F2
Test: Example 8 main study Luminex, LPS hPBMCs: IL-1 beta/IL-1F2
Type: cell-based, human
Protocol: Human PBMCs were pretreated with YY-101, YDE-011, YDE-043 or reference compound; Xiidra® at various concentration (ranging from […] to 500 nM) for 2 h before stimulation. An equal volume of 0.5% DMSO was used as a vehicle control. Then, the cells were treated with LPS at 5 ug/ml, which was selected based on the pilot study. The supernatants from treated cells were harvested at 24 h and placed in a 96 well for Luminex cytokine & chemokine profiling using a Luminex 200 multiplex assay (Luminex; R&D system, USA).
The main study arm with triplicate wells per group in a 24-well plate: • 1. Blank • 2. PBMC: 0.5% DMSO • 3. PBMC+LPS (5 ug/ml) • 4. PBMC+YY-101 500 nM • 5. PBMC+YY-101 50 nM • 6. PBMC+YY-101 5 nM • 7. PBMC+YY-101 0.5 nM • 8. PBMC+LPS (5 ug/ml)+Xiidra® 500 nM • 9. PBMC+LPS (5 ug/ml)+Xiidra® 50 nM • 10. PBMC+LPS (5 ug/ml)+Xiidra® 5 nM • 11. PBMC+LPS (5 ug/ml)+Xiidra® 0.5 nM • 12. PBMC+LPS (5 ug/ml)+Xiidra® 0.05 nM • 13. PBMC+LPS (5 ug/ml)+Xiidra® 0.005 nM • 14. PBMC+LPS (5 ug/ml)+YY-101 500 nM • 15. PBMC+LPS (5 ug/ml)+YY-101 50 nM • 16. PBMC+LPS (5 ug/ml)+YY-101 5 nM • 17. PBMC+LPS (5 ug/ml)+YY-101 0.5 nM • 18. PBMC+LPS (5 ug/ml)+YY-101 0.05 nM • 19. PBMC+LPS (5 ug/ml)+YY-101 0.005 nM • 20. PBMC+LPS (5 ug/ml)+YDE-011 500 nM • 21. PBMC+LPS (5 ug/ml)+YDE-011 50 nM • 22. PBMC+LPS (5 ug/ml)+YDE-011 5 nM • 23. PBMC+LPS (5 ug/ml)+YDE-011 0.5 nM • 24. PBMC+LPS (5 ug/ml)+YDE-011 0.05 nM • 25. PBMC+LPS (5 ug/ml)+YDE-011 0.005 nM • 26. PBMC+LPS (5 ug/ml)+YDE-043 500 nM • 27. PBMC+LPS (5 ug/ml)+YDE-043 50 nM • 28. PBMC+LPS (5 ug/ml)+YDE-043 5 nM • 29. PBMC+LPS (5 ug/ml)+YDE-043 0.5 nM • 30. PBMC+LPS (5 ug/ml)+YDE-043 0.05 nM • 31. PBMC+LPS (5 ug/ml)+YDE-043 0.005 nM
Multiplex assay was used to measure 30 cytokines and chemokines. The 1:200 diluted cell supernatant and serial dilution of the standard were dispensed into a 96 well plate at 50 ul/well. Then, the pre-mixed cocktail of antibody-coated magnetic beads was dispensed at 50 ul/well and incubated at room temperature for 2 h in a horizontal orbital microplate shaker at 800±500 rpm. The beads were washed using a magnetic device to prevent loss. The biotin-antibody was dispensed in 50 ul of each well and incubated at room temperature for 1 h in a shaker at 800±500 rpm. After washing, streptavidin-PE was added at 50 ul/well and incubated at room temperature for 30 min in a shaker under the same conditions. Finally, after washing, wash buffer (100 ul/well) was added to the plate and incubated in a shaker for 2 min. The Luminex™ 200 setting were set according to the manufacturer's protocol. The data was calculated with a standard five-parameter logistic nonlinear regression analysis of the data (xPonent software 4.2, USA). Results were presented as concentration (ng/ml or pg/ml).

[1] = PBMC + LPS(5 ug/ml) + test article 0.005 nM, Mean
[2] = PBMC + LPS(5 ug/ml) + test article 0.005 nM, individual replicates
[3] = PBMC + LPS(5 ug/ml) + test article 0.05 nM, Mean
[4] = PBMC + LPS(5 ug/ml) + test article 0.05 nM, individual replicates
[5] = PBMC + LPS(5 ug/ml) + test article 0.5 nM, Mean
[6] = PBMC + LPS(5 ug/ml) + test article 0.5 nM, individual replicates
[7] = PBMC + LPS(5 ug/ml) + test article 5 nM, Mean
[8] = PBMC + LPS(5 ug/ml) + test article 5 nM, individual replicates
[9] = PBMC + LPS(5 ug/ml) + test article 50 nM, Mean
[10] = PBMC + LPS(5 ug/ml) + test article 50 nM, individual replicates
[11] = PBMC + LPS(5 ug/ml) + test article 500 nM, Mean
[12] = PBMC + LPS(5 ug/ml) + test article 500 nM, individual replicates
[13] = PBMC + test article 0.5 nM, no LPS, Mean
[14] = PBMC + test article 0.5 nM, no LPS, individual replicates (1st, 2nd)
[15] = PBMC + test article 5 nM, no LPS, Mean
[16] = PBMC + test article 5 nM, no LPS, individual replicates (1st, 2nd)
[17] = PBMC + test article 0.05 uM, no LPS, Mean
[18] = PBMC + test article 0.05 uM, no LPS, individual replicates (1st, 2nd)
[19] = PBMC + test article 50 nM, no LPS, Mean
[20] = PBMC + test article 50 nM, no LPS, individual replicates (1st, 2nd)
[21] = PBMC + test article 500 nM, no LPS, Mean
[22] = PBMC + test article 500 nM, no LPS, individual replicates (1st, 2nd)

CC(C)C[C@H](NC(=O)CNC(=O)[C@H](CC(=O)O)NC(=O)[C@H](CCC(N)=O)NC(=O)CNC(=O)[C@@H]1C[C@@H](O)CN1)C(=O)N[C@@H](C)C(=O)NCC(=O)N1CCC[C@H]1C(=O)N[C@@H](CCCCN)C(=O)O [YY-101] (H-[Hyp]GQDGLAGPK-OH; N-terminus and C-terminus assumed)
IL-1 beta/IL-1F2 Concentration [1]: 5806.3 pg/mL
IL-1 beta/IL-1F2 MFI [1]: 105.2
IL-1 beta/IL-1F2 Concentration [2]: 5975.0 pg/mL and 6004.7 pg/mL and 5439.3 pg/mL
IL-1 beta/IL-1F2 MFI [2]: 108.0 and 108.5 and 99.0
IL-1 beta/IL-1F2 Concentration [3]: 6004.8 pg/mL
IL-1 beta/IL-1F2 MFI [3]: 108.5
IL-1 beta/IL-1F2 Concentration [4]: 5736.8 pg/mL and 6511.1 pg/mL and 5766.6 pg/mL
IL-1 beta/IL-1F2 MFI [4]: 104.0 and 117.0 and 104.5
IL-1 beta/IL-1F2 Concentration [5]: 6044.5 pg/mL
IL-1 beta/IL-1F2 MFI [5]: 109.2
IL-1 beta/IL-1F2 Concentration [6]: 5736.8 pg/mL and 5975.0 pg/mL and 6421.7 pg/mL
IL-1 beta/IL-1F2 MFI [6]: 104.0 and 108.0 and 115.5
IL-1 beta/IL-1F2 Concentration [7]: 5875.9 pg/mL
IL-1 beta/IL-1F2 MFI [7]: 106.3
IL-1 beta/IL-1F2 Concentration [8]: 5498.8 pg/mL and 5558.3 pg/mL and 6570.7 pg/mL
IL-1 beta/IL-1F2 MFI [8]: 100.0 and 101.0 and 118.0
IL-1 beta/IL-1F2 Concentration [9]: 5608.2 pg/mL
IL-1 beta/IL-1F2 MFI [9]: 101.8
IL-1 beta/IL-1F2 Concentration [10]: 5201.4 pg/ml (2×) and 6421.7 pg/ml
IL-1 beta/IL-1F2 MFI [10]: 95.0 (2×) and 115.5
IL-1 beta/IL-1F2 Concentration [11]: 5578.2 pg/mL
IL-1 beta/IL-1F2 MFI [11]: 101.3
IL-1 beta/IL-1F2 Concentration [12]: 5260.9 pg/mL and 5915.4 pg/mL and 5558.3 pg/mL
IL-1 beta/IL-1F2 MFI [12]: 96.0 and 107.0 and 101.0
IL-1 beta/IL-1F2 Concentration [13]: 391.1 pg/mL
IL-1 beta/IL-1F2 MFI [13]: 13.5
IL-1 beta/IL-1F2 Concentration [14]: 362.0 pg/mL and 420.1 pg/mL
IL-1 beta/IL-1F2 MFI [14]: 13.0 and 14.0
IL-1 beta/IL-1F2 Concentration [15]: 391.1 pg/mL
IL-1 beta/IL-1F2 MFI [15]: 13.5
IL-1 beta/IL-1F2 Concentration [16]: 362.0 pg/mL and 420.1 pg/mL
IL-1 beta/IL-1F2 MFI [16]: 13.0 and 14.0
IL-1 beta/IL-1F2 Concentration [17]: 420.1 pg/mL
IL-1 beta/IL-1F2 MFI [17]: 14.0
IL-1 beta/IL-1F2 Concentration [18]: 420.1 pg/mL
IL-1 beta/IL-1F2 MFI [18]: 14.0
IL-1 beta/IL-1F2 Concentration [19]: 362.0 pg/mL
IL-1 beta/IL-1F2 MFI [19]: 13.0
IL-1 beta/IL-1F2 Concentration [20]: 362.0 pg/mL
IL-1 beta/IL-1F2 MFI [20]: 13.0
IL-1 beta/IL-1F2 Concentration [21]: 420.1 pg/mL
IL-1 beta/IL-1F2 MFI [21]: 14.0
IL-1 beta/IL-1F2 Concentration [22]: 420.1 pg/mL
IL-1 beta/IL-1F2 MFI [22]: 14.0

— patent US20230146455A1, “TREATMENT OF INFLAMMATORY DISEASES WITH PEPTIDES AND PHARMACEUTICAL COMPOSITIONS” (Yuyu Pharma, Inc., priority 2020, published 2023)
